Laboratory results reported in ChEMBL document CHEMBL5126506, “Coumarin-benzimidazole hybrids: A review of developments in medicinal chemistry” (Eur J Med Chem, 2022).
Values after ≈ are worked out from the molar mass of the structure shown.

Columns and labels:
Salmonella typhi = experiment: Antibacterial activity against Salmonella typhi ATCC 11778 assessed as bacterial growth inhibition at 50 ug/ml incubated for 24 hrs relative to control; type: functional, Salmonella enterica subsp. enterica serovar Typhi; design: scale not given: the % may be the effect or the level left; conditions: dose 50 µg/ml
Shigella dysenteriae = experiment: Antibacterial activity against Shigella dysenteriae ATCC 49345 assessed as bacterial growth inhibition at 50 ug/ml incubated for 24 hrs relative to control; type: functional; design: scale not given: the % may be the effect or the level left; conditions: dose 50 µg/ml
Carbonic anhydrase 2 = Carbonic anhydrase 2 (Homo sapiens, UniProt P00918); experiment: Inhibition of human carbonic anhydrase-2 by stopped flow CO2 hydrase assay
Carbonic anhydrase 1 = Carbonic anhydrase 1 (Homo sapiens, UniProt P00915); experiment: Inhibition of human carbonic anhydrase-1 by stopped flow CO2 hydrase assay
Chain of Carbonic anhydrase 1 (P00915 whole entry): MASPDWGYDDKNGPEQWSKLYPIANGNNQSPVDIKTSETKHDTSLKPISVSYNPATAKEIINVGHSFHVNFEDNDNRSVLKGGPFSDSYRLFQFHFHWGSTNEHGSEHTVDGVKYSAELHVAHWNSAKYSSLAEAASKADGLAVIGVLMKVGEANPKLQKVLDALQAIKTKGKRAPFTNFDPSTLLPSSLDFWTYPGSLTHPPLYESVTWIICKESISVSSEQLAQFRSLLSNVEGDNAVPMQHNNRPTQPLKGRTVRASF

HeLa = experiment: Anticancer activity against human HeLa cells assessed as cell growth inhibition by SRB method; type: functional
Rattus norvegicus [1] = experiment: Antiinflammatory activity in formalin induced fasted albino rat paw oedema model assessed as inhibition of paw oedema at 100 mg/kg, po measured after 4 hrs by plethysmograph analysis relative to control; type: functional; design: scale not given: the % may be the effect or the level left
Bacillus subtilis = experiment: Antibacterial activity against Bacillus subtilis assessed as zone of inhibition at 1000 ug/ml measured after 24 hrs by cup plate method; type: functional; conditions: read-out: DIZ
Aspergillus terreus = experiment: Antifungal activity against Aspergillus terreus assessed as zone of inhibition at 1000 ug/ml measured after 24 hrs by cup plate method; type: functional; conditions: read-out: DIZ
Escherichia coli = experiment: Antibacterial activity against Escherichia coli assessed as zone of inhibition at 1000 ug/ml measured after 24 hrs by cup plate method; type: functional; conditions: read-out: DIZ
Pseudomonas aeruginosa = experiment: Antibacterial activity against Pseudomonas aeruginosa assessed as zone of inhibition at 1000 ug/ml measured after 24 hrs by cup plate method; type: functional; conditions: read-out: DIZ
Staphylococcus aureus [2] = experiment: Antibacterial activity against Staphylococcus aureus assessed as zone of inhibition at 1000 ug/ml measured after 24 hrs by cup plate method; type: functional; conditions: read-out: DIZ
Aspergillus niger = experiment: Antifungal activity against Aspergillus niger assessed as zone of inhibition at 1000 ug/ml measured after 24 hrs by cup plate method; type: functional; conditions: read-out: DIZ
Aspergillus flavus = experiment: Antifungal activity against Aspergillus flavus assessed as zone of inhibition at 1000 ug/ml measured after 24 hrs by cup plate method; type: functional; conditions: read-out: DIZ
Hepatitis C virus = experiment: Antiviral activity against HCV GT-1b infected in human Huh-5-2 cells carrying HCV subgenomic replicons assessed as inhibition of viral replication by quantitative RT-PCR assay; type: functional, organism-based, Hepacivirus hominis; conditions: subtype 1b
Staphylococcus aureus [3] = experiment: Antibacterial activity against beta lactamase positive Staphylococcus aureus ATCC 25923 assessed as zone of inhibition at 0.5 mg/ml incubated for 18 hrs by Kirby-Bauer disk diffusion method; type: functional; conditions: read-out: DIZ
Rattus norvegicus [4] = experiment: Antiinflammatory activity in formalin induced Wistar rat paw oedema model assessed as inhibition of paw oedema administered up to 6 hrs by plethysmograph analysis; type: functional, organism-based; design: scale not given: the % may be the effect or the level left
[5] = Anticancer activity against human U-87 MG cells assessed as cell growth inhibition measured after 72 hrs by MTT assay; type: functional, cell-based, U-87MG ATCC
HT-29 = experiment: Anticancer activity against human HT-29 cells assessed as cell growth inhibition measured after 72 hrs by MTT assay; type: functional, cell-based; conditions: HT-29, 72 h
A549 = experiment: Anticancer activity against human A549 cells assessed as cell growth inhibition measured after 72 hrs by MTT assay; type: functional, cell-based; conditions: A549, 72 h
NCI-H460 [6] = experiment: Anticancer activity against human NCI-H460 cells assessed as cell growth inhibition measured after 72 hrs by MTT assay; type: functional, cell-based; conditions: NCI-H460, 72 h
Sprivivirus cyprinus = experiment: Antiviral activity against Carp sprivivirus infected Fathead minnow EPC cells assessed as assessed as suppression of virus-induced cytopathic effect incubated for 48 hrs by CCK-8 assay; type: functional, organism-based
SF-268 = experiment: Anticancer activity against human SF-268 cells assessed as cell growth inhibition measured after 48 hrs by sulforhodamine B staining based analysis; type: functional
NCI-H460 [7] = experiment: Anticancer activity against human NCI-H460 cells assessed as cell growth inhibition measured after 48 hrs by sulforhodamine B staining based analysis; type: functional
[8] = Cytotoxicity against human WI-38 cells assessed as cell growth inhibition measured after 48 hrs by sulforhodamine B staining based analysis; type: toxicity
MCF7 = experiment: Anticancer activity against human MCF7 cells assessed as cell growth inhibition measured after 48 hrs by sulforhodamine B staining based analysis; type: functional
Rattus norvegicus [9] = experiment: Antiinflammatory activity in carrageenan induced rat paw oedema model assessed as inhibition of paw oedema, ip pretreated with compound for 30 mins followed by carrageenan injection measured after 3 hrs relative to control; type: functional; design: scale not given: the % may be the effect or the level left; conditions: time 3.5 hrs
[10] = Antioxidant activity assessed as DPPH radical scavenging activity incubated for 30 mins in dark condition by spectrophotometrical analysis; type: functional
MOLT-4 = experiment: Anticancer activity against human Molt4/C8 cells assessed as cell growth inhibition measured after 3 days by CCK-8 assay; type: functional, cell-based; conditions: MOLT-4, 72 h
CCRF-CEM = experiment: Anticancer activity against human CEM/0 cells assessed as cell growth inhibition measured after 3 days by CCK-8 assay; type: functional, cell-based; conditions: 72 h
[11] = Anticancer activity against mouse L1210/0 cells assessed as cell growth inhibition measured after 3 days by CCK-8 assay; type: functional, cell-based; conditions: L1210/0, 72 h

O=c1oc2ccc(Cl)cc2cc1CSc1nc2ccc([N+](=O)[O-])cc2[nH]1
Activity (Salmonella typhi): 100%
Activity (Shigella dysenteriae): 100%

O=c1cc(C[n+]2cn(Cc3ccc4ccccc4c3)c3ccccc32)c2ccc(O)cc2o1
IC50 (Carbonic anhydrase 2): 6.01 µM
IC50 (Carbonic anhydrase 1): 5.34 µM

Cc1ccc(S(=O)(=O)n2c(-c3cc(=O)oc4ccc(C)cc34)nc3ccccc32)cc1
GI50 (HeLa): 35 µg/mL (≈ 81.3 µM)

O=C1CSC(c2cc3ccc(O)cc3oc2=O)N1Nc1nc2ccccc2[nH]1 (centres undefined)
Activity (Rattus norvegicus [1]): 48%
zone of inhibition at 1000 µg/mL (Bacillus subtilis): 13 mm
zone of inhibition at 1000 µg/mL (Aspergillus terreus): 13 mm
zone of inhibition at 1000 µg/mL (Escherichia coli): 13 mm
zone of inhibition at 1000 µg/mL (Pseudomonas aeruginosa): 13 mm
zone of inhibition at 1000 µg/mL (Staphylococcus aureus [2]): 13 mm
zone of inhibition at 1000 µg/mL (Aspergillus niger): 13 mm
zone of inhibition at 1000 µg/mL (Aspergillus flavus): 13 mm

COc1ccc2oc(=O)cc(-c3nc4ccccc4n3S(=O)(=O)c3ccc(C)cc3)c2c1
GI50 (HeLa): 35 µg/mL (≈ 78.4 µM)

Cc1ccc2nc(SCc3cc4ccccc4oc3=O)[nH]c2c1
Activity (Salmonella typhi): 100%
Activity (Shigella dysenteriae): 100%

CC(=O)OC[C@H]1O[C@@H](n2c(SCc3cc4cc(Br)ccc4oc3=O)nc3ccccc32)[C@H](OC(C)=O)[C@@H](OC(C)=O)[C@@H]1OC(C)=O
EC50 (Hepatitis C virus): 4.1 µM

O=c1oc2ccccc2c(O)c1S(=O)(=O)Nc1nc2ccccc2[nH]1
zone of inhibition at 500 µg/mL (Staphylococcus aureus [3]): 13 mm

O=c1oc2ccc(Cl)cc2cc1-c1nc2ccccc2[nH]1
Activity (Rattus norvegicus [4]): 46.75%

O=C(CCl)n1c(-c2cc3ccccc3oc2=O)nc2ccccc21
IC50 [5]: 0.34 µM
IC50 (HT-29): 0.57 µM
IC50 (A549): 0.29 µM
IC50 (NCI-H460 [6]): 0.59 µM

O=c1ccc2cc(OCCCCn3cnc4ccccc43)ccc2o1
IC50 (Sprivivirus cyprinus): 0.56 µg/mL (≈ 1.67 µM)

O=c1oc2ccc(Br)cc2cc1CSc1nc2ccccc2[nH]1
Activity (Salmonella typhi): 100%
EC50 (Hepatitis C virus): 4 µM
Activity (Shigella dysenteriae): 100%

O=c1oc2ccccc2cc1-c1nc2ccccc2n1C(=S)Nc1ccccc1
GI50 (SF-268): 0.06 µM
GI50 (NCI-H460 [7]): 0.05 µM
GI50 at 48 h [8]: 28 µM
GI50 (MCF7): 0.08 µM

Cc1ccc2c(Cc3nc4ccccc4[nH]3)cc(=O)oc2c1
Activity (Rattus norvegicus [9]): 45%

O=c1oc2cc(O)ccc2cc1/C=N/Nc1nc2ccccc2[nH]1
Activity (Rattus norvegicus [1]): 39%
zone of inhibition at 1000 µg/mL (Bacillus subtilis): 13 mm
zone of inhibition at 1000 µg/mL (Aspergillus terreus): 13 mm
zone of inhibition at 1000 µg/mL (Escherichia coli): 13 mm
zone of inhibition at 1000 µg/mL (Pseudomonas aeruginosa): 13 mm
zone of inhibition at 1000 µg/mL (Staphylococcus aureus [2]): 13 mm
zone of inhibition at 1000 µg/mL (Aspergillus niger): 13 mm
zone of inhibition at 1000 µg/mL (Aspergillus flavus): 13 mm

Cc1cc(C(C)(C)C)c(O)c(C(C)(C)C)c1 [BUTYLATED HYDROXYTOLUENE]
EC50 [10]: 23.4 µM

O=C(Cc1cc(=O)oc2c([N+](=O)[O-])cccc12)Nc1nc2ccccc2[nH]1
EC50 [10]: 0.08 µM

O=c1cc(C[n+]2cn(Cc3ccc4ccccc4c3)c3ccccc32)c2ccc(O)c(O)c2o1
IC50 (Carbonic anhydrase 2): 6.01 µM
IC50 (Carbonic anhydrase 1): 4.99 µM

Cc1ccc2oc(=O)c(-c3nc4cc(Cl)ccc4[nH]3)cc2c1
IC50 (MOLT-4): 3.6 µg/mL (≈ 11.6 µM)
IC50 (CCRF-CEM): 1.9 µg/mL (≈ 6.11 µM)
IC50 [11]: 5.1 µg/mL (≈ 16.4 µM)

O=c1oc2ccc(Cl)cc2cc1-c1nc2cc(Cl)ccc2[nH]1
IC50 (MOLT-4): 0.44 µg/mL (≈ 1.33 µM)
IC50 (CCRF-CEM): 0.42 µg/mL (≈ 1.27 µM)
IC50 [11]: 0.67 µg/mL (≈ 2.02 µM)

O=c1oc2ccccc2c2cc(O)n3c4ccccc4nc3c12
GI50 (SF-268): 20.6 µM
GI50 (NCI-H460 [7]): 29 µM
GI50 at 48 h [8]: 28.2 µM
GI50 (MCF7): 44 µM
